Consider seven compounds from patent EP1845096A1, “12-Aza-epothilones, process for their preparation and their use as antiproliferative agents” (ETH Zürich, priority 2006, dated 2007).

One assay relates to HCT-116. Briefly: Human cancer cell growth inhibition, methylene blue staining, HCT-116. In kind it is cell-based. The following applies: read-out: IC50 HCT-116. The procedure:
(§1) Stock solutions of the test compounds (2 mM) are prepared in DMSO and stored at -20°C. Human KB-31 and (multidrug-resistant, P-gp170 expressing) KB-8511 epidermoid carcinoma cells (Akiyama et al., Somat. Cell. Mol. Genetics 1985, 11, 117-120), which are both derivatives of the KB cell line (ATCC) and are human epidermis carcinoma cells, are employed. KB 31 cells may be cultivated in mono-layers using Dulbecco's modified Eagle's medium (D-MEM) with 10% foetal calf serum (M.A. Bioproducts), L-glutamine (Flow), penicillin (50 units/ml) and streptomycin (50 µg/ml) (Flow); they then grow at a duplication time of ca. 22 hours, and their relative plating efficiency is ca. 60%. KB-8511 is a variant derived from the KB-31 cell line, which is obtained using colchicine treatment cycles, and has an approximately 40 times relative resistance to colchicine compared with KB-31 cells. The cells are incubated at 37°C in an incubator with 5% v/v CO2 and at 80% relative humidity with MEMAlpha medium which contains ribonucleosides and desoxyribonucleosides (Gibco BRL), complemented with 10 IU penicillin, 10 µg/ml streptomycin and 5% foetal calf serum. The cells are seeded in a quantity of 1.5 x 10^3 cells/well in 96-well microtitre plates, and incubated over night. Serial dilutions of the test compounds in culture medium are added on day 1. […] After washing, the dye is eluted with 3% HCl and the optical density measured at 665 nm with a GeniosPro plate spectrophotometer (Tecan, Switzerland). IC50 values are determined by adaptation of mathematical curves, using the formula [(OD treated)-(OD start) [/] (OD control)-(OD start)] x 100. The IC50 is defined as the concentration of a test compound at the end of the incubation period, which led to 50% of the cell count per well compared with the control (concentration at semi-maximum inhibition of cell growth).
(§2) The preferred ranges of the IC50 values of compounds of formula (I) are given in square parentheses. A549 (lung; ATCC CCL 185) [0.01 to 100 nM], HCT-116 (colon) [0.05 to 200 nM], and PC-3M cells (prostate, hormone-insensitive derivative derived from PC-3, ATCC CRL 1435) [0.05 to 500 nM] were grown in RPMI-1640 medium supplemented with 10% FBS.

The subject of another assay is PC-3M. Briefly: Human cancer cell growth inhibition, methylene blue staining, PC-3M. Format: cell-based. The following applies: read-out: IC50 PC-3M. On the procedure:
as §1, §2

A further assay deals with porcine brain αβ-tubulin (Sus scrofa, UniProt P02554). As to the kind of experiment: Tubulin polymerization (turbidimetry at 340 nm). Format: biochemical. On the procedure:
Tubulin is isolated as pure αβ-tubulin from fresh pig brain according to the method of Castoldi and Popov (Protein Expr. Purif. 2003, 32, 83-88). Working stock solutions of αβ-tubulin are stored at -80°C. Freshly thawed αβ-tubulin is centrifuged and then incubated with the compounds to be tested in suitable solvents and buffers, guanosine-5'-triphosphate (GTP), and glutamate in a 96-well plate, as described in more detail below in the Examples. The polymerization is monitored real-time at 340 nm in a temperature-controlled TECAN GeniosPro spectrophotometer. UV absorption of compounds is subtracted from absorption curves.
Tubulin was isolated as pure αβ-tubulin from fresh pig brain according to the method of Castoldi and Popov (Protein Expr. Purif. 2003, 32, 83-88). Fresh brains were obtained from the local slaughterhouse and processed immediately without prior cooling. 150-200 g cleaned pig brain was put into ice-cooled depolymerization buffer (50 mM MES [2-morpholinoethanesulphonic acid], 1 mM CaCl2, adjusted to pH 6.9 with KOH) and homogenized in a Polytron mixer. The homogenate was centrifuged in a Sorvall SLA-1500 rotor at 14500 rpm for 60 min. The supernatant was transferred into an Erlenmeyer flask in high-molarity PIPES buffer (1 M PIPES [1,4-piperazinediethanesulfonic acid], 10 mM MgCl2, 20 mM EGTA [ethylene glycol-bis-2(2-aminoethyl)-tetraacetic acid] adjusted to pH 6.9 with KOH) plus […] (1.5 mM final concentration) and glycerol (98%) ad 300 ml. The resulting suspension was mixed and incubated at 37°C for 1 hour. Aliquots were transferred into ultracentrifuge tubes and centrifuged in a Beckman Ti50.2 rotor at.32500 rpm (96000 g) for 75 min at 30°C. The microtubule protein pellets were resuspended in depolymerization buffer and put on ice prior to ultracentrifugation at 4°C. The procedure was repeated for two polymerization cycles (total of 3 cycles) and the final αβ-tubulin pellets were resuspended in ice-cold Brinkley Buffer (BRB80; 80 mM PIPES, 1 mM MgCl2, 1 mM EGTA adjusted to pH 6.8 with KOH) prior to shock-freezing in liquid nitrogen and subsequent storage at -80°C. αβ-tubulin purity and concentration were determined by SDS-PAGE gel electrophoresis and spectrophotometrically (A = ε x c x d with a given extinction coefficient of 115'000 M^-1cm^-1) at 280 nm. This procedure typically yielded 60-100 mg of αβ-tubulin per 100 g of brain.
Freshly thawed αβ-tubulin was centrifuged at 5000 g for 5 min at 5°C and then incubated with additional BRB80 buffer, drugs, DMSO vehicle, guanosine-5'-triphosphate (GTP) / glutamate (25 mM /2.7 M), respectively, in a 96-well plate in either 50 or 100 µl volumes. Experiments were either carried out in a 96-well quartz plate or in normal 96-well polystyrene plates (Falcon). The polymerization was monitored real-time at 340 nm in a temperature-controlled TECAN GeniosPro spectrophotometer. Depending on the specific experiment, the temperature was set either to room temperature (actual measuring temperature was 24-27°C) or 37°C. […] UV absorption of compounds was subtracted from absorption curves. All experiments, along with both negative (untreated αβ-tubulin) and vehicle controls, were carried out in triplicate. Experiments were performed at least with two different αβ-tubulin batches.

The test system of a further assay is A549. Briefly: Human cancer cell growth inhibition, methylene blue staining, A549. In kind it is cell-based. On the procedure:
as §1, §2

In the next assay the test system is KB-31. Briefly: Human cancer cell growth inhibition, methylene blue staining, KB-31. The following applies: read-out: IC50 KB-31. Format: cell-based. On the procedure:
as §1, with “The cells are incubated at 37°C in an incubator with 5% v/v CO2 and at 80% relative humidity with MEMAlpha medium which contains ribonucleosides and desoxyribonucleosides (Gibco BRL), complemented with 10 IU penicillin, 10 µg/ml streptomycin and 5% foetal calf serum.” left out, “night.” for “night. Serial dilutions of the test compounds in culture medium are added on day 1.”, “(OD control)-(OD start)] x 100. The IC50 is defined as the concentration of a test compound at the end of the incubation period, which led to 50% of the cell count per well compared with the control (concentration at semi-maximum inhibition of cell growth).” left out

Assay [1] has as its system drug-sensitive human cancer cells. As to the kind of experiment: Potency comparison on drug-sensitive human cancer cell lines (from Table 1). In kind it is cell-based. The following applies: potency ratio versus reference compound B. On the procedure: as §1, with “The cells are incubated at 37°C in an incubator with 5% v/v CO2 and at 80% relative humidity with MEMAlpha medium which contains ribonucleosides and desoxyribonucleosides (Gibco BRL), complemented with 10 IU penicillin, 10 µg/ml streptomycin and 5% foetal calf serum.” left out, “night.” for “night. Serial dilutions of the test compounds in culture medium are added on day 1.”, “(OD control)-(OD start)] x 100. The IC50 is defined as the concentration of a test compound at the end of the incubation period, which led to 50% of the cell count per well compared with the control (concentration at semi-maximum inhibition of cell growth).” left out

Where two headings read alike, the source gives them in different places. Bounds are passed on as bounds.

Sequence of porcine brain αβ-tubulin (P02554 whole entry): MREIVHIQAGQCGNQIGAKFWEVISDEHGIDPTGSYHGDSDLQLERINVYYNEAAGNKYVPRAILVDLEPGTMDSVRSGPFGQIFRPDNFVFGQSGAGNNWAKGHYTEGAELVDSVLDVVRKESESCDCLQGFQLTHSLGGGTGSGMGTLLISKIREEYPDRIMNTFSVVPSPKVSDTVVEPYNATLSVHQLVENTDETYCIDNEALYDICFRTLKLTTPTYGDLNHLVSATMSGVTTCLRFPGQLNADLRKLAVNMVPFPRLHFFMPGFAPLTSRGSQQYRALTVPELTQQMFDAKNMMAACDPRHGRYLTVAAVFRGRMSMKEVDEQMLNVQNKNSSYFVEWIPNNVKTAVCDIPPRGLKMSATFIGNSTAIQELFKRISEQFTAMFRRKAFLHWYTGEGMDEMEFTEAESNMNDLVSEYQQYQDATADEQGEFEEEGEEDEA
Sequence of porcine brain αβ-tubulin (P02550 whole entry partner): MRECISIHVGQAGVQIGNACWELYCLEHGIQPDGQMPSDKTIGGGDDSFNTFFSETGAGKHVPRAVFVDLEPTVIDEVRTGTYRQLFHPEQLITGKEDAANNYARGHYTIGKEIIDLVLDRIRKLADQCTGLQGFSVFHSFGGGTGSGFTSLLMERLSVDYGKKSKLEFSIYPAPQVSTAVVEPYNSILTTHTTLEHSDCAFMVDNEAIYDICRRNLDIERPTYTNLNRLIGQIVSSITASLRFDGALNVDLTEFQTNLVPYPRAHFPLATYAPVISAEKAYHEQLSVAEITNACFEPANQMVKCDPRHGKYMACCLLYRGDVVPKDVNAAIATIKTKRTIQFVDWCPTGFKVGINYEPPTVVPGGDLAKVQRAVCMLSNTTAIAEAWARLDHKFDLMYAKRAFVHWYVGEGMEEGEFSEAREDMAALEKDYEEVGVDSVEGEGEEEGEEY

Regarding `Cc1nc2cc([C@@H]3CCN(C(=O)OC(C)(C)C)C/C=C/[C@H](C)[C@H](O)[C@@H](C)C(=O)C(C)(C)[C@@H](O)CC(=O)O3)ccc2n1C` [A, (2S,9S,10S,11R,14S,E)-tert-butyl-2-(1,2-dimethyl-1H-benzo[d]imidazol-5-yl)-10,14-dihydroxy-9,11,13,13-tetramethyl-12,16-dioxo-1-oxa-5-azacyclohexadec-7-ene-5-carboxylate, reference compound], the 50% inhibitory concentration (IC50) (commonly the concentration needed to halve the response being measured) was 1010 ± 71 nM in the assay with HCT-116 (HCT-116, 72 h); 973 ± 64 nM in the assay with PC-3M (PC-3M); 920 ± 85 nM in the assay with A549 (A549, read-out: IC50 A549). Besides, the EC50 (in general, the concentration giving half of the maximal effect) on porcine brain αβ-tubulin is 9100 ± 700 nM.

In the case of `C/C(=C\c1csc(C)n1)[C@@H]1CCN(C(=O)OC(C)(C)C)CCC[C@H](C)[C@H](O)[C@@H](C)C(=O)C(C)(C)[C@@H](O)CC(=O)O1` [B, reference compound], the half-inhibitory concentration (IC50) in the assay on HCT-116 (HCT-116, 72 h) was 110 ± 19 nM; in the assay with KB-31 (KB 3-1, 72 h) it was 31 nM; in the assay on PC-3M (PC-3M), 126 ± 22 nM; in the assay with A549 (A549, read-out: IC50 A549) it was 130 ± 24 nM. The EC50 at porcine brain αβ-tubulin is 5600 ± 400 nM.

For `C/C(=C\c1csc(C)n1)[C@@H]1C[C@@H]2O[C@@H]2CCC[C@H](C)[C@H](O)[C@@H](C)C(=O)C(C)(C)[C@@H](O)CC(=O)O1` [C, Epothilone A, reference compound], the IC50 came to 2.2 ± 0.3 nM with HCT-116 (HCT-116, 72 h); 3.4 ± 0.4 nM in the assay on PC-3M (PC-3M); 3.2 ± 0.5 nM with A549 (A549, read-out: IC50 A549). The midpoint of the response at porcine brain αβ-tubulin, the EC50, lay at 4600 ± 500 nM.

As for `Cc1nc2cc([C@@H]3CCN(C(=O)OC(C)(C)C)CCC[C@H](C)[C@H](O)[C@@H](C)C(=O)C(C)(C)[C@@H](O)CC(=O)O3)ccc2n1C` [Compound 1, (2S,9S,10S,11R,14S)-tert-butyl-2-(1,2-dimethyl-1H-benzo[d]imidazol-5-yl)-10,14-dihydroxy-9,11,13,13-tetramethyl-12,16-dioxo-1-oxa-5-azacyclohexadecane-5-carboxylate], the half-maximal inhibitory concentration (IC50) in the assay on HCT-116 (HCT-116: colon, cells exposed for 72 h, mean of at least three experiments ± standard deviation) worked out at 1.6 ± 0.5 nM; in the assay with KB-31 (KB 3-1, KB-31: cervical (or cervix), parental line, cells exposed for 72 h), 0.35 nM; in the assay on PC-3M (PC-3M: prostate, cells exposed, mean of at least three experiments ± standard deviation) it was 2.3 ± 0.6 nM; with A549 (A549: lung, cells exposed, mean of at least three experiments ± standard deviation, read-out: IC50 A549), 1.9 ± 0.4 nM. For the same compound, in assay [1], the “more potent against drug-sensitive human cancer cells than aza-epothilone B” value is more than 60 fold. Besides, at porcine brain αβ-tubulin (concentration required to induce 50% of the maximum αβ-tubulin polymerization achievable with the respective compound, 10 µM of porcine brain αβ-tubulin, turbidity at 340 nm, mean ± standard deviation, read-out: EC50 Tubulin polymerization), the EC50 was 3900 ± 600 nM.

For the compound `CCOC(=O)N1CCC[C@H](C)[C@H](O)[C@@H](C)C(=O)C(C)(C)[C@@H](O)CC(=O)O[C@H](c2ccc3c(c2)nc(C)n3C)CC1` [Compound 2], the IC50 was 23.9 ± 2.9 nM with HCT-116 (HCT-116, 72 h); 12.3 ± 1.1 nM with PC-3M (PC-3M); 18 ± 3.1 nM in the assay with A549 (A549, read-out: IC50 A549). On porcine brain αβ-tubulin, a half-maximal effect (EC50) was put at 5400 ± 400 nM.

Take `Cc1nc2cc([C@@H]3CCN(C(=O)OCC(F)(F)F)CCC[C@H](C)[C@H](O)[C@@H](C)C(=O)C(C)(C)[C@@H](O)CC(=O)O3)ccc2n1C` [Compound 3]: the IC50 came to 17.1 ± 3.3 nM with HCT-116 (HCT-116, 72 h); 6.3 ± 2.1 nM with PC-3M (PC-3M); 11.5 ± 1.8 nM with A549 (A549, read-out: IC50 A549). For the same compound, the response at porcine brain αβ-tubulin was half-maximal at 5100 ± 500 nM (EC50).

Turning to `Cc1nc2cc([C@@H]3CCN(c4ccc([N+](=O)[O-])c5nonc45)CCC[C@H](C)[C@H](O)[C@@H](C)C(=O)C(C)(C)[C@@H](O)CC(=O)O3)ccc2n1C` [Compound 17, (2S,9S,10S,11R,14S)-2-(1,2-dimethyl-1H-benzo[d]imidazol-5-yl)-10,14-dihydroxy-9,11,13,13-tetramethyl-5-(7-nitrobenzo[c][1,2,5]oxadiazol-4-yl)-1-oxa-5-azacyclohexadecane-12,16-dione], the IC50 in the assay on HCT-116 (HCT-116, 72 h) amounted to 206 ± 8 nM; in the assay on PC-3M (PC-3M), 244 ± 45 nM; in the assay with A549 (A549, read-out: IC50 A549) it was 329 ± 237 nM. The same compound showed an EC50 at porcine brain αβ-tubulin of 7200 ± 600 nM.
